{
  "source": "patent US20240041042A1",
  "about": "“1-(PYRIDYL)-5-AZINYLPYRAZOLE DERIVATIVES, AND THEIR USE FOR CONTROL OF UNDESIRED PLANT GROWTH” (Bayer Aktiengesellschaft, priority 2020, published 2024)",
  "format_in_all_cases": "in vivo",
  "key": {"[1]": {"test_system": "Alopecurus myosuroides (ALOMY)", "test": "Post-emergence herbicidal action against ALOMY", "conditions": "visual rating about 3 weeks after treatment vs untreated controls (100% = plants have died, 0% = like control plants)", "in_short": "(§1)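 Post-emergence greenhouse spray, one-leaf stage, 600 l/ha water plus 0.5% additive; WP or EC formulations; application rates 320 g/ha or lower. Visual % damage vs untreated controls at ~3 weeks.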"}, "[2]": {"test_system": "Amaranthus retroflexus (AMARE)", "test": "Pre-emergence herbicidal action against AMARE", "conditions": "visual scoring after about 3 weeks vs untreated controls", "in_short": "(§2)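 Application rates ran to 320 g/ha or lower, with several dosages tested on the same weeds. The compound, as wettable powder or emulsion concentrate, is sprayed pre-emergence onto soil over sown seeds; greenhouse growth follows, and effect is rated visually after roughly 3 weeks.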"}, "[3]": {"test_system": "Setaria viridis (SETVI)", "test": "Pre-emergence herbicidal action against SETVI", "in_short": "as §2"}, "[4]": {"test_system": "Pharbitis purpurea (PHBPU)", "test": "Post-emergence herbicidal action against PHBPU", "in_short": "as §1"}, "[5]": {"test_system": "Amaranthus retroflexus (AMARE)", "test": "Post-emergence herbicidal action against AMARE", "in_short": "as §1"}, "[6]": {"test_system": "Echinochloa crus-galli (ECHCG)", "test": "Pre-emergence herbicidal action against ECHCG", "in_short": "as §2"}, "[7]": {"test_system": "Matricaria inodora (MATIN)", "test": "Pre-emergence herbicidal action against MATIN", "in_short": "as §2"}, "[8]": {"test_system": "Viola tricolor (VIOTR)", "test": "Post-emergence herbicidal action against VIOTR", "in_short": "as §1"}, "[9]": {"test_system": "Echinochloa crus-galli (ECHCG)", "test": "Post-emergence herbicidal action against ECHCG", "in_short": "as §1"}, "[10]": {"test_system": "Verconica persica (VERPE)", "test": "Post-emergence herbicidal action against VERPE", "in_short": "as §1"}, "[11]": {"conditions": "80 g/ha, visual rating about 3 weeks after treatment vs untreated controls (100% = plants have died, 0% = like control plants)"}, "[12]": {"conditions": "320 g/ha, visual rating about 3 weeks after treatment"}},
  "data": [
    {"smiles": "CCOC(=O)COc1nn(-c2ccccn2)c(-c2ccc(F)nc2)c1Br", "note": "[Example I-02]", "values": [
      {"measurement": "Post-emergence action against ALOMY in %", "setting": "[1]; 80 g/ha", "value": 80, "unit": "%"},
      {"measurement": "Post-emergence action against ALOMY in %", "setting": "[1]; 320 g/ha", "value": 100, "unit": "%"},
      {"measurement": "Pre-emergence action against AMARE in %", "setting": "[2]; 80 g/ha", "value": 100, "unit": "%"},
      {"measurement": "Pre-emergence action against AMARE in %", "setting": "[2]; 320 g/ha", "value": 100, "unit": "%"},
      {"measurement": "Pre-emergence action against SETVI in %", "setting": "[3]; dosage 80 g/ha", "value": 100, "unit": "%"},
      {"measurement": "Pre-emergence action against SETVI in %", "setting": "[3]; dosage 320 g/ha", "value": 100, "unit": "%"},
      {"measurement": "Post-emergence action against PHBPU in %", "setting": "[4]; dosage 80 g/ha", "value": 90, "unit": "%"},
      {"measurement": "Post-emergence action against PHBPU in %", "setting": "[4]; dosage 320 g/ha", "value": 100, "unit": "%"},
      {"measurement": "Post-emergence action against AMARE in %", "setting": "[5]; [11]", "value": 80, "unit": "%"},
      {"measurement": "Post-emergence action against AMARE in %", "setting": "[5]; [12]", "value": 80, "unit": "%"},
      {"measurement": "Pre-emergence action against ECHCG in %", "setting": "[6]; dosage 320 g/ha", "value": 100, "unit": "%"},
      {"measurement": "Pre-emergence action against MATIN in %", "setting": "[7]; dosage 320 g/ha", "value": 100, "unit": "%"},
      {"measurement": "Post-emergence action against VIOTR in %", "setting": "[8]; 320 g/ha", "value": 80, "unit": "%"},
      {"measurement": "Post-emergence action against ECHCG in %", "setting": "[9]; dosage 80 g/ha", "value": 90, "unit": "%"},
      {"measurement": "Post-emergence action against ECHCG in %", "setting": "[9]; dosage 320 g/ha", "value": 90, "unit": "%"},
      {"measurement": "Post-emergence action against VERPE in %", "setting": "[10]; 320 g/ha, VERPE", "value": 80, "unit": "%"},
      {"measurement": "Post-emergence action against VERPE in %", "setting": "[10]; dosage 80 g/ha", "value": 80, "unit": "%"}
    ]},
    {"smiles": "COC(=O)[C@@H](C)Oc1nn(-c2ncccc2F)c(-c2ccc(F)nc2)c1C1CC1", "note": "[Example I-307]", "values": [
      {"measurement": "Post-emergence action against ALOMY in %", "setting": "[1]; 80 g/ha", "value": 100, "unit": "%"},
      {"measurement": "Post-emergence action against ALOMY in %", "setting": "[1]; 320 g/ha", "value": 100, "unit": "%"},
      {"measurement": "Pre-emergence action against AMARE in %", "setting": "[2]; 80 g/ha", "value": 100, "unit": "%"},
      {"measurement": "Pre-emergence action against AMARE in %", "setting": "[2]; 320 g/ha", "value": 100, "unit": "%"},
      {"measurement": "Pre-emergence action against SETVI in %", "setting": "[3]; dosage 80 g/ha", "value": 100, "unit": "%"},
      {"measurement": "Pre-emergence action against SETVI in %", "setting": "[3]; dosage 320 g/ha", "value": 100, "unit": "%"},
      {"measurement": "Post-emergence action against PHBPU in %", "setting": "[4]; dosage 80 g/ha", "value": 80, "unit": "%"},
      {"measurement": "Post-emergence action against PHBPU in %", "setting": "[4]; dosage 320 g/ha", "value": 90, "unit": "%"},
      {"measurement": "Post-emergence action against AMARE in %", "setting": "[5]; [11]", "value": 80, "unit": "%"},
      {"measurement": "Post-emergence action against AMARE in %", "setting": "[5]; [12]", "value": 90, "unit": "%"},
      {"measurement": "Pre-emergence action against ECHCG in %", "setting": "[6]; dosage 80 g/ha", "value": 100, "unit": "%"},
      {"measurement": "Pre-emergence action against ECHCG in %", "setting": "[6]; dosage 320 g/ha", "value": 100, "unit": "%"},
      {"measurement": "Pre-emergence action against MATIN in %", "setting": "[7]; dosage 80 g/ha", "value": 90, "unit": "%"},
      {"measurement": "Pre-emergence action against MATIN in %", "setting": "[7]; dosage 320 g/ha", "value": 100, "unit": "%"},
      {"measurement": "Post-emergence action against VIOTR in %", "setting": "[8]; 80 g/ha", "value": 80, "unit": "%"},
      {"measurement": "Post-emergence action against VIOTR in %", "setting": "[8]; 320 g/ha", "value": 90, "unit": "%"},
      {"measurement": "Post-emergence action against ECHCG in %", "setting": "[9]; dosage 80 g/ha", "value": 90, "unit": "%"},
      {"measurement": "Post-emergence action against ECHCG in %", "setting": "[9]; dosage 320 g/ha", "value": 90, "unit": "%"},
      {"measurement": "Post-emergence action against VERPE in %", "setting": "[10]; 320 g/ha, VERPE", "value": 90, "unit": "%"},
      {"measurement": "Post-emergence action against VERPE in %", "setting": "[10]; dosage 80 g/ha", "value": 90, "unit": "%"}
    ]},
    {"smiles": "COC(=O)[C@@H](C)Oc1nn(-c2ncccc2F)c(-c2ccc(F)nc2)c1Br", "note": "[Example I-05, Methyl (2R)-2-{[4-bromo-1-(3-fluoropyridin-2-yl)-5-(6-fluoropyridin-3-yl)-1H-pyrazol-3-yl]oxy}propanoate]", "values": [
      {"measurement": "Post-emergence action against ALOMY in %", "setting": "[1]; 80 g/ha", "value": 90, "unit": "%"},
      {"measurement": "Post-emergence action against ALOMY in %", "setting": "[1]; 320 g/ha", "value": 100, "unit": "%"},
      {"measurement": "Pre-emergence action against AMARE in %", "setting": "[2]; 80 g/ha", "value": 90, "unit": "%"},
      {"measurement": "Pre-emergence action against AMARE in %", "setting": "[2]; 320 g/ha", "value": 100, "unit": "%"},
      {"measurement": "Pre-emergence action against SETVI in %", "setting": "[3]; dosage 80 g/ha", "value": 100, "unit": "%"},
      {"measurement": "Pre-emergence action against SETVI in %", "setting": "[3]; dosage 320 g/ha", "value": 100, "unit": "%"},
      {"measurement": "Post-emergence action against PHBPU in %", "setting": "[4]; dosage 320 g/ha", "value": 90, "unit": "%"},
      {"measurement": "Post-emergence action against AMARE in %", "setting": "[5]; [11]", "value": 90, "unit": "%"},
      {"measurement": "Post-emergence action against AMARE in %", "setting": "[5]; [12]", "value": 90, "unit": "%"},
      {"measurement": "Pre-emergence action against ECHCG in %", "setting": "[6]; dosage 320 g/ha", "value": 100, "unit": "%"},
      {"measurement": "Pre-emergence action against MATIN in %", "setting": "[7]; dosage 320 g/ha", "value": 90, "unit": "%"},
      {"measurement": "Post-emergence action against VIOTR in %", "setting": "[8]; 80 g/ha", "value": 100, "unit": "%"},
      {"measurement": "Post-emergence action against VIOTR in %", "setting": "[8]; 320 g/ha", "value": 100, "unit": "%"},
      {"measurement": "Post-emergence action against ECHCG in %", "setting": "[9]; dosage 320 g/ha", "value": 90, "unit": "%"},
      {"measurement": "Post-emergence action against VERPE in %", "setting": "[10]; 320 g/ha, VERPE", "value": 90, "unit": "%"},
      {"measurement": "Post-emergence action against VERPE in %", "setting": "[10]; dosage 80 g/ha", "value": 90, "unit": "%"}
    ]}
  ]
}
